Data as given in patent publication US11332470B2, “CXCR4 inhibitors and uses thereof” (X4 Pharmaceuticals, Inc., priority 2016, dated 2022).

Assays:
in vitro = conditions: human, Caco-2, pH 7.4
Procedure, shortened: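 Compound at 10 μM in HBSS pH 7.4 dosed A-to-B and B-to-A across Caco-2 monolayers, 90 min at 37 °C, duplicates. Monolayer integrity by TEER and lucifer yellow (5 μM, fluorescence 485/535 nm); compound quantified by LC-MS/MS.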

[1] = Fraction of drug unbound to brain proteins; assay type: in vitro ADME, Mouse; conditions: read-out: Fu (b) % (fraction of drug unbound to brain proteins)
CXCR4 (U87.CXCR4 cells) = biological target: T1, CXCR4 (U87.CXCR4 cells) (Homo sapiens, UniProt P61073); test: Intracellular CXCL-12-induced calcium mobilization assay (FLIPR); assay type: cell-based; conditions: CXCL-12 25-50 ng/mL, read-out: IC50 CXCL-12 Ca2+ flux U87.CXCR4+
T1 construct: expressed in transfected cells; host or cells: U87 (U87.CXCR4)
T1 sequence (P61073 whole entry): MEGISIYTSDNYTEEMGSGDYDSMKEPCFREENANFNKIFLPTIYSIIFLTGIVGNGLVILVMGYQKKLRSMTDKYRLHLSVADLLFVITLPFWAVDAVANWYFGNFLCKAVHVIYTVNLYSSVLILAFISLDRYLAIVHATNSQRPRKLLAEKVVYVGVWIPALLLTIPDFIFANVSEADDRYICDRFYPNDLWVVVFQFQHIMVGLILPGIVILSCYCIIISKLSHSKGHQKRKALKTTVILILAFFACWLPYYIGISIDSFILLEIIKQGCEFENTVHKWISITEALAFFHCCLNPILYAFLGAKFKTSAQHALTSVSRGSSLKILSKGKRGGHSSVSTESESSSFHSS
Procedure, shortened: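 U87.CXCR4 cells were loaded with 4 μM Fluo-2 AM for 45 min at 37 °C in HBSS/20 mM HEPES/0.2% BSA, pH 7.4. Calcium flux induced by CXCL-12 (25-50 ng/mL) was monitored kinetically by FLIPR fluorescence at 37 °C.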

[2] = Fraction of drug unbound to plasma proteins; assay type: in vitro ADME, Mouse; conditions: read-out: Fu (p) % (fraction of drug unbound to plasma proteins)

Papp A→B at 90 min, 10 μM (in vitro)	Papp B→A at 90 min, 10 μM (in vitro)	efflux ratio at 90 min, 10 μM (in vitro)	fraction unbound ([1]; Table 9, mouse)	IC50 (CXCR4 (U87.CXCR4 cells))	fraction unbound ([2]; Table 9, mouse)	fraction unbound ([1]; Table 10, mouse)	fraction unbound ([2]; Table 10, mouse)	Structure (SMILES)
10 to 30 ×10⁻⁶ cm/s	10 to 30 ×10⁻⁶ cm/s	0.1 to 10	0.053	0.01 to 100 nM	0.133			CN1CCN(c2c(CN3CCCC3c3ccccn3)nc3ccc(F)cn23)CC1 (stereo not drawn) [Compound I-63]
10 to 30 ×10⁻⁶ cm/s	10 to 30 ×10⁻⁶ cm/s	0.1 to 10	0.207	0.01 to 100 nM	0.148			CN1CCN(c2c(CN3CCCC3c3nccs3)nc3ccccn23)CC1 (stereo not drawn) [Compound I-70]

Second part, the compound before the results:

Structure (SMILES)	Papp A→B at 90 min, 10 μM (in vitro)	Papp B→A at 90 min, 10 μM (in vitro)	efflux ratio at 90 min, 10 μM (in vitro)	fraction unbound ([1]; Table 9, mouse)	IC50 (CXCR4 (U87.CXCR4 cells))	fraction unbound ([2]; Table 9, mouse)	fraction unbound ([1]; Table 10, mouse)	fraction unbound ([2]; Table 10, mouse)
CN1CCN(c2cccc3[nH]c(CN4CCCC4c4ncccc4Cl)nc23)CC1 (stereo not drawn) [Compound I-26]	10 to 30 ×10⁻⁶ cm/s	10 to 30 ×10⁻⁶ cm/s	0.1 to 10	0.076	100 to 1000 nM	0.127		
Cc1cccnc1C1CCCN1Cc1cn2c(N3CCN(C)C4(CC4)C3)cccc2n1 (stereo not drawn) [Compound I-29]	10 to 30 ×10⁻⁶ cm/s	10 to 30 ×10⁻⁶ cm/s	0.1 to 10		100 to 1000 nM		0.063	0.455
Cc1cccnc1C1CCCN1Cc1nc2cccc(N3CCN(C4CC4)CC3)c2[nH]1 (stereo not drawn) [Compound I-31]	10 to 30 ×10⁻⁶ cm/s	10 to 30 ×10⁻⁶ cm/s	0.1 to 10		100 to 1000 nM		0.008	0.05
CN1CCN(c2c(CN3CCCC3c3ccccn3)nc3ccccn23)CC1 (stereo not drawn) [Compound I-41]	10 to 30 ×10⁻⁶ cm/s	10 to 30 ×10⁻⁶ cm/s	0.1 to 10	0.069	0.01 to 100 nM	0.239		
